{"source": "ChEMBL document CHEMBL4017513", "about": "“Structure-Activity Relationships of Potent, Targeted Covalent Inhibitors That Abolish Both the Transamidation and GTP Binding Activities of Human Tissue Transglutaminase” (J Med Chem, 2017)", "key": {"[1]": {"experiment": "Inhibition of guinea pig liver TG2 using Z-Gln-Gly/DMPDA as substrate preincubated for 3 mins followed by protein addition", "design": "species or system Cavia porcellus"}, "[2]": {"biological_target": "T1, Protein-glutamine gamma-glutamyltransferase K (Homo sapiens) (UniProt P22735)", "T1 sequence (whole entry)": "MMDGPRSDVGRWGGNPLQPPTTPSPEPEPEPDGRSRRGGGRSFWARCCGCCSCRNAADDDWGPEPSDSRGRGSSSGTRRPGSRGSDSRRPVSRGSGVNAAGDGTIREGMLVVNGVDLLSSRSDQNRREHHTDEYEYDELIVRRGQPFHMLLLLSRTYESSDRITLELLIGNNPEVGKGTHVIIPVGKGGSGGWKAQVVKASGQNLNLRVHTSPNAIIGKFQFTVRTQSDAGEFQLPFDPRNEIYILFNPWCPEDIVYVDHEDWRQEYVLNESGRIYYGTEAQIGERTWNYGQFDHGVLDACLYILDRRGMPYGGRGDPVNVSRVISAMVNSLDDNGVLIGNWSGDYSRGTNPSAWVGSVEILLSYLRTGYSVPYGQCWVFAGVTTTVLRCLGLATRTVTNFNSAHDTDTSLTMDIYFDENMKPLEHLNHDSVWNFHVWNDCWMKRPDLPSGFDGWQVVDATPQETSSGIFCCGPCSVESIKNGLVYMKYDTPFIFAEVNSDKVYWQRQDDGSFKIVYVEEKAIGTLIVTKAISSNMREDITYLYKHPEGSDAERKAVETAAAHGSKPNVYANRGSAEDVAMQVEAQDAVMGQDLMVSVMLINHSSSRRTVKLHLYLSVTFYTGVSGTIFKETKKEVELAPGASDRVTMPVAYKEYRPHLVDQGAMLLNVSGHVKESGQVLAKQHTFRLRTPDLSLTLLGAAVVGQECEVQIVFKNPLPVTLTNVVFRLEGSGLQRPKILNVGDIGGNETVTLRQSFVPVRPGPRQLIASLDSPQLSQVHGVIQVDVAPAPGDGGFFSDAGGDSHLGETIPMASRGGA", "experiment": "Inactivation of human TG1 using AL5 as substrate by colorimetric assay"}, "[3]": {"biological_target": "T2, Protein-glutamine gamma-glutamyltransferase E (Homo sapiens) (UniProt Q08188)", "T2 sequence (whole entry)": "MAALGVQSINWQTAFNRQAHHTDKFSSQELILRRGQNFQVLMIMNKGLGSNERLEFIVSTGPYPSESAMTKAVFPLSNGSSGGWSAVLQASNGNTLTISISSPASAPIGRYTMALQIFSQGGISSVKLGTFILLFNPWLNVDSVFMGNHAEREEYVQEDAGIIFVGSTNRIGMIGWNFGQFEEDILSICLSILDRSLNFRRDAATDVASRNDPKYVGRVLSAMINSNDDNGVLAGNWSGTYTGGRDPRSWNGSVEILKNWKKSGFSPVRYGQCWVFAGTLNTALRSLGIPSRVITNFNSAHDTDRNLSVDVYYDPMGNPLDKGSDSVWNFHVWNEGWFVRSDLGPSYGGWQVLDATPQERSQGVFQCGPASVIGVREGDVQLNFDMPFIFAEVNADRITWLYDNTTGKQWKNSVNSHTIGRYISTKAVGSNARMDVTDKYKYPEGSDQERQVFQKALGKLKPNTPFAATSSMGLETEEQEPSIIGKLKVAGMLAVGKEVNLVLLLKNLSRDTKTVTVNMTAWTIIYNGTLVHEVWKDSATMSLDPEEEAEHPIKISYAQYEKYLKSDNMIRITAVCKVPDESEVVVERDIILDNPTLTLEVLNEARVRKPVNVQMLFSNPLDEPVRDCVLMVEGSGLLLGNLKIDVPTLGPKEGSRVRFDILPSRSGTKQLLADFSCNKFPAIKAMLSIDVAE", "experiment": "Inactivation of activated human TG3 assessed as rate constant of enzyme inactivation using FRET- quenched A101 as substrate by fluorescence assay"}, "[4]": {"experiment": "Inhibition of human ECS cells invasion by using Engelbreth-Holm-Swarm mouse tumor matrigel measured after 18 hrs by DAPI staining-based flourescence microscopy", "format": "functional, cell-based"}}, "data": [{"smiles": "C=CC(=O)NCCCC[C@H](NC(=O)OCc1ccccc1)C(=O)NCCOCCOCCNS(=O)(=O)c1cccc2c(N(C)C)cccc12", "values": [{"measurement": "Ki", "setting": "[1]", "value": 29, "unit": "µM"}, {"measurement": "K", "setting": "[2]", "value": 78.9, "unit": "×10⁻³ /min"}, {"measurement": "K", "setting": "[3]", "value": 1.01, "unit": "×10⁻³ /min"}, {"measurement": "EC50", "setting": "[4]", "value": "> 20", "unit": "µM"}]}]}
